Measurements published in paper PMC10482913, “A new class of anticancer activity with computational studies for a novel bioactive aminophosphonates based on pyrazole moiety” (Scientific Reports, 2023).
pIC50: −log10 of the molar value. Where two headings read alike, the source gives them in different places.

Tests used:
[1] = test system: Human lung fibroblast normal cell line (WI38); test: cells; assay type: cell-based
From the text: (§1) Finally, all the studied phosphonate compounds have moderate to weak cytotoxicity activity on the normal cell WI-38.
(§2) The in vitro antitumor activity of the compounds under study in this research was investigated cell growth using the MTT assay, [31]. The human tumor cell lines that used to evaluate the activity are Human lung fibroblast (WI38), Colorectal carcinoma Colon cancer (HCT-116) and Epdermoid Carcinoma (HEP2). The MTT assay is a standard colorimetric assay that is used to measure cell growth. It is used to determine cytotoxicity of potential medicinal agents and other toxic materials. Detailed procedures for the MTT assay method is presented in the supporting information (Sect. S2). […]
(§3) Cytotoxicity Assay (Section S2)
(§4) The cell lines Human lung fibroblast (WI38), Colorectal carcinoma Colon cancer (HCT-116) and Epdermoid Carcinoma (HEP2) were used to determine the inhibitory effects of compounds on cell growth using the MTT assay. This colorimetric assay is based on the conversion of the yellow tetrazolium bromide (MTT) to a purple formazan derivative by mitochondrial succinate dehydrogenase in viable cells. Cell lines were cultured in RPMI-1640 medium with 10% fetal bovine serum. Antibiotics added were 100 units/ml penicillin and 100µg/ml streptomycin at 37 C in a 5% Co2 incubator. The cell lines were seedes in a 96-well plate at a density of 1.0x10^4 cells/well.
(§5) At 37 C for 48 h under 5% CO2. After incubation the cells were treated with different concentration of compounds and incubated for 24 h. After 24 h of drug treatment, 20 µl of MTT solution at […]
(§6) 5mg/ml was added and incubated for 4 h. Dimethyl sulfoxide (DMSO) in volume of 100 µl is added into each well to dissolve the purple formazan formed. The colorimetric assay is measured and recorded at absorbance of 570 nm using a plate reader (EXL 800, USA). The relative cell viability in percentage was calculated as (A570 of treated samples/A570 of untreated sample) X 100.

[2] = test system: Colorectal carcinoma Colon cancer (HCT-116); test: cells; assay type: cell-based, human; details: for pIC50: Homo sapiens; for relative activity for colon carcinoma cells (HCT-116), in words: among all compounds
From the text: as §1, §2, §3, §4, §5, §6

[3] = test system: Epdermoid Carcinoma (HEP2); assay type: cell-based, human; details: among all compounds
From the text: as §2, §3
as §4, with “Antibiotics added were 100 units/ml penicillin and 100µg/ml streptomycin at 37 C in a 5% Co2 incubator. The cell lines were seedes in a 96-well plate at a density of 1.0x10^4 cells/well.” left out
5mg/ml was added and incubated for 4 h. […] The colorimetric assay is measured and recorded at absorbance of 570 nm using a plate reader (EXL 800, USA). The relative cell viability in percentage was calculated as (A570 of treated samples/A570 of untreated sample) X 100.

[4] = WI-38, read-out: IC50 against normal cell line (WI38)
[5] = HCT-116, read-out: IC50 against colon carcinoma cells (HCT-116)
[6] = WI-38, Figure 6, unit inferred, read-out: IC50 against normal cell line (WI38)
[7] = HCT-116, Figure 4, unit inferred, read-out: IC50 against colon carcinoma cells (HCT-116)

Structure (SMILES)	pIC50 [1, 4]	pIC50 [2, 5]	pIC50 [1, 6]	pIC50 [2, 7]	relative activity for colon carcinoma cells (HCT-116), in words [2]	melting point [°C]	relative activity for Epdermoid Carcinoma (HEP2), in words [3]
O=[N+]([O-])c1cccc(C(Nc2cc(-c3ccccc3)nn2-c2ccc([N+](=O)[O-])cc2[N+](=O)[O-])P(=O)(Oc2ccccc2)Oc2ccccc2)c1 (stereo not drawn) [Compound 4c, Diphenyl{(1-(2,4-dinitrophenyl)-3-phenyl-1H-pyrazol-5-ylamino)(3-nitrophenyl)}methyl phosphonate]	< 4.00	4.29	–	–	–	–	–
CCOP(=O)(OCC)C(Nc1cc(-c2ccc([N+](=O)[O-])cc2)nn1-c1ccccc1)c1ccc([N+](=O)[O-])cc1 (stereo not drawn) [Compound 2d, Diethyl{(3-(4-nitrophenyl)-1-phenyl-1H-pyrazol-5-ylamino)(4-nitrophenyl)}methylphosphonate]	–	–	4.38	4.70	strongest activity	234 to 235	–
CCOP(=O)(OCC)C(Nc1cc(-c2ccc([N+](=O)[O-])cc2)nn1-c1ccccc1)c1cccc(Cl)c1 (stereo not drawn) [Compound 2c, Diethyl{(3-(4-nitrophenyl)-1-phenyl-1H-pyrazol-5-ylamino)(3-chlorophenyl)}methylphosphonate]	–	–	4.53	4.34	–	150 to 152	–
CCOP(=O)(OCC)C(Nc1cc(-c2ccc([N+](=O)[O-])cc2)nn1-c1ccccc1)c1cccc(O)c1 (stereo not drawn) [Compound 2b, Diethyl{(3-(4-nitrophenyl)-1-phenyl-1H-pyrazol-5-ylamino)(3-hydroxyphenyl)}methylphosphonate]	–	–	4.25	4.07	–	252 to 254	–
CCOP(=O)(OCC)C(Nc1cc(-c2ccccc2)nn1-c1ccc([N+](=O)[O-])cc1[N+](=O)[O-])c1ccc(N(C)C)cc1 (stereo not drawn) [Compound 2f, Diethyl{(1-(2,4-dinitrophenyl)-3-phenyl-1H-pyrazol-5-ylamino)(4-N,Ndimethylaminophenyl)} methyl phosphonate]	–	–	4.19	4.42	–	244 to 246	–
CCOP(=O)(OCC)C(Nc1cc(-c2ccc([N+](=O)[O-])cc2)nn1-c1ccccc1)c1ccc(Cl)cc1 (stereo not drawn) [Compound 2e, Diethyl{(3-(4-nitrophenyl)-1-phenyl-1H-pyrazol-5-ylamino)(4-chlorophenyl)}methylphosphonate]	–	–	4.06	4.24	–	298 to 300	–
CN(C)c1ccc(C(Nc2cc(-c3ccccc3)nn2-c2ccc([N+](=O)[O-])cc2[N+](=O)[O-])P(=O)(Oc2ccccc2)Oc2ccccc2)cc1 (stereo not drawn) [Compound 4d, Diphenyl{(1-(2,4-dinitrophenyl)-3-phenyl-1H-pyrazol-5-ylamino)(4-N,N-dimethylaminophenyl)} methyl phosphonate]	4.11	4.58	–	–	–	212 to 214	highest activity
O=[N+]([O-])c1ccc(-c2cc(NC(c3ccc([N+](=O)[O-])cc3)P(=O)(Oc3ccccc3)Oc3ccccc3)n(-c3ccccc3)n2)cc1 (stereo not drawn) [Compound 4b, Diphenyl{(3-(4-nitrophenyl)-1-phenyl-1H-pyrazol-5-ylamino)(4-nitrophenyl)}methylphosphonate]	4.20	4.82	–	–	strongest activity	167 to 168	highest activity
O=[N+]([O-])c1ccc(-c2cc(NC(c3cccc(O)c3)P(=O)(Oc3ccccc3)Oc3ccccc3)n(-c3ccccc3)n2)cc1 (stereo not drawn) [Compound 4a, Diphenyl{(3-(4-nitrophenyl)-1-phenyl-1H-pyrazol-5-ylamino)(3-hydroxyphenyl)}methylphosphonate]	4.33	4.14	–	–	–	266 to 268	–
